From patent publication US11439618B2, “Compositions and methods for lowering triglycerides” (Amarin Pharmaceuticals Ireland Limited, priority 2009, dated 2022)

Tested on: subjects with Age-Associated Memory Impairment
Test: Safety and tolerability (adverse events), 6-week AAMI study
Assay type: in vivo, human
Procedure: All randomized subjects that received at least 1 dose of study medication were included in the Safety Population.
Safety evaluations were based on the safety population. Safety and tolerability were assessed in terms of AEs, vital signs, 12-lead ECG, clinical laboratory data, medical history, and study drug compliance. Safety and tolerability data were presented by treatment group.

Question: With `CC/C=C\C/C=C\C/C=C\C/C=C\C/C=C\CCCC(=O)OCC` [Ethyl-EPA, all-cis eicosa-5,8,11,14,17-pentaenoic acid ethyl ester] as the compound, how does the “Nausea Probably Related to the study drug” value (1 g) read?
Answer: The value was “One”.

Question: What about the “Nausea Possibly Related to the study drug” value (from here on “Nausea Possibly Related”) (1 g cohort) of the same compound?
Answer: Its value is “two”.

Question: What about the “Nausea Possibly Related” value (2 g cohort) of the same compound?
Answer: The value was “one”.

Question: What about the SAE reported (2 g treatment group) of the same compound?
Answer: Its SAE reported is “One”.

Question: And the “Subjects discontinued due to TEAEs” value (2 g treatment group)?
Answer: Its value is 2 subjects.

Question: And the “Serious adverse event (worsening epigastric chest pain), relation to study drug” value (2 g, one subject, 17 days after start, 9 days after last dose)?
Answer: The value was “unrelated to the study drug”.

Question: And the “Nausea Possibly Related” value (4 g cohort)?
Answer: The value was “two”.

Question: What about the “Diarrhea, relation to the study drug” value (4 g, one subject) of the same compound?
Answer: Its value is “diarrhea that was Probably Related to the study drug”.

Question: And the “Treatment emergent AEs (TEAEs) reported” value (ethyl-EPA treatment groups (1, 2, 4 g), placebo groups 34 events)?
Answer: The value was 105 events.

Question: And the “Deaths during the study” value (whole study)?
Answer: Its value is “no deaths”.

Question: And the “Severity and relatedness of most TEAEs” value (whole study)?
Answer: Its value is “mild in severity and unrelated to study drug”.

Question: What about the “TEAEs Definitely Related to the study drug” value (whole study) of the same compound?
Answer: The value was “No TEAEs were Definitely Related”.
